Experimental data as given in patent US20020032183A1, “Use of (di-substituted-phenyl)-pyrimidinyl-imidazole derivatives as JNK-inhibitors” (priority 2000, published 2002).

What was measured:
[1] = system: Rat superior cervical ganglion neurons; experiment: Sympathetic neuronal survival assay (no NGF exposure; GAP-43 ELISA and cell counts); format: cell-based; conditions: for Survival, ELISA Data Mean / Survival, Cell Counts Mean: 48 hours; for Survival, ELISA Data Mean: GAP-43 ELISA; for Survival, Cell Counts Mean: immunostained neurons per well
Protocol: Activation of c-jun-N-terminal kinase (JNK) has been implicated in apoptosis in sympathetic neurons. An inhibitor of JNK, Example 2, was tested for neuroprotective effects in two models of sympathetic neuronal cell death.
In the first model, ganglia were dissociated and plated directly into culture plates in the presence of compound for 48 hours, then fixed and survival assayed using an ELISA for GAP-43. This model will hereafter be referred to as the ‘survival assay’.
Ganglia were enzymatically dissociated using 0.25% trypsin for 45 minutes. The trypsin was then inhibited using Dulbecco's MEM (DMEM) supplemented with 10% fetal bovine serum, and the cells mechanically triturated using a pipette tip to form a single cell suspension. Neurons in the suspension were counted using a haemocytometer, and plated at a density of 3000-5000 neurons per well in poly-D-lysine and laminin coated 96 well tissue culture clusters in DMEM supplemented with B27 serum substitute. Cultures were then incubated at 37° C./5% CO2. One hour following plating, cultures were either treated with NGF 25 ng/ml or with L-790,984 at a range of concentrations for the NGF deprivation and survival assays respectively.
Cultures for the NGF deprivation assay were returned to the incubator for 4 days. Following this, the medium was aspirated, plates washed once with DMEM/B27, and the cultures treated with Example 2 at concentrations ranging from 1 nM to 10 μM, together with an anti-NGF blocking antibody at 250 ng/ml. Cultures were then returned to the incubator for a further 72 hours prior to fixation and survival quantification. Cultures treated with Example 2 immediately for the survival assay were returned to the incubator for 48 hours; cultures were then fixed and survival quantified using the GAP-43 ELISA.
Cultures were fixed by the addition of an equal volume 4% paraformaldehyde to each well for 10 minutes; this was then aspirated, and replaced by a further volume of 4% paraformaldehyde for a further 20 minutes at room temperature. Plates were then washed three times with PBS/0.3% TX100, and non-specific binding sites blocked by the addition of 5% normal horse serum (NHS) in PBS/0.3% TX100. Plates were incubated at room temperature for one hour, then the blocking serum was aspirated without washing and replaced with primary antibody. The primary antibody used was a mouse monoclonal antibody raised against Growth Associated Protein 43 (Sigma), prepared at a dilution of 1:500 in PBS/0.3% TX100/5% NHS. Primary antibody was added to all sample wells, with four control wells returned to blocking serum to act as minus primary control. Plates were then refrigerated overnight at 4° C. The next day, plates were washed three times with PBS/0.3 TX100 and secondary antibody added. The secondary antibody used was peroxidase conjugated sheep anti-mouse IgG, and was added at a dilution of 1:1000 in PBS/0.3% TX100/5% NHS. Plates were incubated for 1 hour at room temperature, then washed three times with PBS/0.3% TX100, and K-Blue insoluble peroxidase substrate added for 30 minutes at room temperature. The optical density of the plates was then read at 650 nm, and the survival of neurons calculated and expressed as percentage of the control response.
Cell counts were performed on one sample plate for each model of sympathetic neuronal cell death, by the addition of a tertiary antibody to the plate, followed by avidin-biotin complex and an insoluble peroxidase substrate. Following quantification of optical density, plates were washed three times in PBS/0.3% TX100, and non-specific sites blocked using PBS/0.3% TX100/5% normal rabbit serum (“NRS”). Plates were incubated for one hour at room temperature, then the blocking serum was aspirated and replaced with biotinylated rabbit anti-sheep IgG at a dilution of 1:500 in PBS/0.3% TX10O/5% NRS. […]

JNK3α1 = biological target: T1, JNK3α1 (Homo sapiens, UniProt P53779); experiment: Biochemical determination of inhibition of JNK3α1; conditions: truncated JNK3α1, 1 μM ATP, 0.5 μM GST-ATF2, 30° C., 30 min
T1 construct: Truncated JNK3α1 (amino acids 39-422) was expressed in E. coli; made in house; host or cells: E. coli
T1 sequence (P53779 39-422 isoform P53779-2): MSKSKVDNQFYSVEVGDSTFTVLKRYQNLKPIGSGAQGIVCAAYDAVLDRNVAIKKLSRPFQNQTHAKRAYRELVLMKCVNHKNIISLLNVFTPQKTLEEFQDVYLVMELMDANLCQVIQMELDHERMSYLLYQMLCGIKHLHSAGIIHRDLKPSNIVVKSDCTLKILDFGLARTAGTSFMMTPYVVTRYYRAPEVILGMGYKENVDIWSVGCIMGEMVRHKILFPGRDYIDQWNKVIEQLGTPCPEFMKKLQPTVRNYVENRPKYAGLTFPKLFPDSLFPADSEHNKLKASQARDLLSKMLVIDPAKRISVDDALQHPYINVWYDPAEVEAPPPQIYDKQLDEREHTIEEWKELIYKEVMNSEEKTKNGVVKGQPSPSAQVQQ
Protocol: Activation reactions were incubated at 30° C. for 2 h.
Enzyme inhibition studies were performed at 30° C. for 30 min with 0.5 μM GST-ATF2, 1 μM ATP, 1 nM activated JNK3α1 and compound ranging from 30 pM to 100 μM. Reactions were carried out in 100 μL volumes containing the final concentrations of the following: 25 mM HEPES (Sigma) pH 7.4; 10 mM MgCl2 (Sigma); 2 mM DTT (Sigma); 20 mM β-glycerophosphate (Sigma); 0.1 mM Na3VO4 (Sigma); 2 μCi [γ-^33P]ATP (2000 Ci/mmol; 1 Ci=37 GBq) (Amersham Pharmacia Biotech, Piscataway, N.J.). Reactions were stopped with 100 μL 100 mM EDTA/15 mM sodium pyrophosphate. Immobilon™-P 96-well plates (Millipore MAIPNOB™ 10, available from the Millipore Corp., Bedford, Mass.) were pretreated with 100 μL methanol, followed by 100 μL 15 mM sodium pyrophosphate. Fifty μL of the stopped reaction was spotted in triplicate on the Immobilon™-P 96-well plate. The samples were vacuum-filtered and washed three times each with 100 μL 75 mM H3PO4 to remove unincorporated [γ-^33P]ATP. After the third H3PO4 wash and a final filtration step to remove H3PO4, 50 μL of Microscint™-20 (Packard BioScience Ltd., Pangbourne, Berkshire, U.K.) was added to each well and samples were analyzed on a Packard Topcount™ liquid scintillation counter. IC50 values were determined by fitting the data to the equation for a four parameter logistic.

CCCn1c(C2CCN(C)CC2)nc(-c2ccc(Cl)c(Cl)c2)c1-c1ccnc(NC2CC2)n1 [Example 2, Cyclopropyl-{4-[5-(3,4-dichlorophenyl)-2-[(1-methyl)-piperidin]-4-yl-3-propyl-3H-imidazol-4-yl]-pyrimidin-2-yl}amine]
Survival, ELISA Data Mean ([1]; 0.01 μM): 112.10 | Survival, Cell Counts Mean ([1]; 0.01 μM): 115.50 | Survival, ELISA Data Mean ([1]; 0.03 μM): 99.19 | Survival, Cell Counts Mean ([1]; 0.03 μM): 127.25 | Survival, ELISA Data Mean ([1]; 0.1 μM): 131.45 | Survival, Cell Counts Mean ([1]; 0.1 μM): 170.50 | Survival, ELISA Data Mean ([1]; 0.3 μM): 209.68 | Survival, Cell Counts Mean ([1]; 0.3 μM): 267.50 | Survival, ELISA Data Mean ([1]; 1 μM): 350.81 | Survival, Cell Counts Mean ([1]; 1 μM): 363.00 | Survival, ELISA Data Mean ([1]; 3 μM): 270.16 | Survival, Cell Counts Mean ([1]; 3 μM): 321.00 | Concentrations at which the survival response declines ([1]; data not shown): above 3 μM | Concentrations at which the survival response was significant ([1]; quantified by ELISA): ≥ 300 nM | IC50 (JNK3α1): 7 nM
